Experimental data: ChEMBL document CHEMBL3739267, “Synthesis of 2,6-dicarbethoxy-3,5-diaryltetrahydro-1,4-thiazine-1,1-dioxide derivatives as potent anticonvulsant agents” (Eur J Med Chem, 2015)
Calls of active or inactive are those of the source. The rule behind the calls is not given here.

How the values were obtained:
Mus musculus [1] = test: Anticonvulsant activity in ip dosed Swiss albino mouse assessed as reduction of maximal electroshock-induced seizure after 4 hrs; format: functional; conditions: read-out: MED
[2] = (§1) Neurotoxicity in ip dosed Swiss albino mouse assessed as inability of animal to maintain equilibrium on rod after 0.5 hrs by rotarod test; format: toxicity, organism-based; conditions: Swiss albino, in vivo
Mus musculus [3] = test: Anticonvulsant activity in ip dosed Swiss albino mouse assessed as reduction of subcutaneous pentylenetetrazole-induced seizure; format: functional
Mus musculus [4] = test: Anticonvulsant activity in ip dosed Swiss albino mouse assessed as reduction of subcutaneous pentylenetetrazole-induced seizure after 0.5 hrs; format: functional; conditions: read-out: MED
Mus musculus [5] = test: Protective index, ratio of TD50 for ip dosed Swiss albino mouse assessed as inability of animal to maintain equilibrium on rod after 0.5 hrs by rotarod test to ED50 for Swiss albino mouse assessed as subcutaneous pentylenetetrazole-induced seizure; format: functional
Mus musculus [6] = test: Anticonvulsant activity in ip dosed Swiss albino mouse assessed as reduction of maximal electroshock-induced seizure after 0.5 hrs; format: functional; conditions: read-out: MED
Mus musculus [7] = test: Neurotoxicity in Swiss albino mouse assessed as inability of animal to maintain equilibrium on rod at 300 mg/kg, ip after 0.5 hrs by rotarod test; format: toxicity, organism-based; conditions: in vivo
Mus musculus [8] = test: Neurotoxicity in Swiss albino mouse assessed as inability of animal to maintain equilibrium on rod at 300 mg/kg, ip after 4 hrs by rotarod test; format: toxicity, organism-based; conditions: in vivo
Mus musculus [9] = test: Protective index, ratio of TD50 for ip dosed Swiss albino mouse assessed as inability of animal to maintain equilibrium on rod after 0.5 hrs by rotarod test to ED50 for Swiss albino mouse assessed as reduction of maximal electroshock-induced seizure; format: functional
Mus musculus [10] = test: Anticonvulsant activity in ip dosed Swiss albino mouse assessed as reduction of maximal electroshock-induced seizure; format: functional
Mus musculus [11] = test: Anticonvulsant activity in ip dosed Swiss albino mouse assessed as reduction of subcutaneous pentylenetetrazole-induced seizure after 4 hrs; format: functional; conditions: read-out: MED
Mus musculus [12] = test: Neurotoxicity in ip dosed Swiss albino mouse assessed as inability of animal to maintain equilibrium on rod after 4 hrs by rotarod test; format: toxicity, organism-based; conditions: in vivo
Mus musculus [13] = test: Anticonvulsant activity in Swiss albino mouse assessed as reduction of subcutaneous pentylenetetrazole-induced seizure at 300 mg/kg, ip after 4 hrs; format: functional, organism-based
Mus musculus [14] = test: Anticonvulsant activity in Swiss albino mouse assessed as reduction of subcutaneous pentylenetetrazole-induced seizure at 300 mg/kg, ip after 0.5 hrs; format: functional, organism-based
Mus musculus [15] = test: as §1; format: toxicity, organism-based; conditions: in vivo, 0.5 h
Mus musculus [16] = test: Anticonvulsant activity in Swiss albino mouse assessed as reduction of maximal electroshock-induced seizure at 300 mg/kg, ip after 0.5 hrs; format: functional, organism-based
Mus musculus [17] = test: Anticonvulsant activity in Swiss albino mouse assessed as reduction of maximal electroshock-induced seizure at 300 mg/kg, ip after 4 hrs; format: functional, organism-based

Row | SMILES | minimal effective dose (Mus musculus [1]) [mg/kg] | TD50 at 0.5 h [2] [mg/kg] | ED50 (Mus musculus [3]) [mg/kg] | minimal effective dose (Mus musculus [4]) [mg/kg] | Ratio TD50/ED50 (Mus musculus [5]) | minimal effective dose (Mus musculus [6]) [mg/kg] | Activity (Mus musculus [7]) | Activity (Mus musculus [8]) | Ratio TD50/ED50 (Mus musculus [9]) | ED50 (Mus musculus [10]) [mg/kg] | minimal effective dose (Mus musculus [11]) [mg/kg] | MTC (Mus musculus [12]) [mg/kg] | Activity (Mus musculus [13]) | Activity (Mus musculus [14]) | MTC (Mus musculus [15]) [mg/kg] | Activity (Mus musculus [16]) | Activity (Mus musculus [17])
1 | CCOC(=O)C1C(c2ccc(C)cc2)NC(c2ccc(C)cc2)C(C(=O)OCC)S1(=O)=O (stereo not drawn) | 100 | 227 | 90.2 | 300 | 2.5 | 30 | Non-toxic | Non-toxic | 15.7 | 14.4 | 300 | – | – | – | – | – | –
2 | CCOC(=O)C1C(c2ccc([N+](=O)[O-])cc2)NC(c2ccc([N+](=O)[O-])cc2)C(C(=O)OCC)S1(=O)=O (stereo not drawn) | 100 | 190 | 73.2 | 300 | 2.6 | 30 | Non-toxic | Non-toxic | 16.7 | 11.4 | 300 | – | – | – | – | – | –
3 | CCOC(=O)C1C(c2ccc(OC)cc2)NC(c2ccc(OC)cc2)C(C(=O)OCC)S1(=O)=O (stereo not drawn) | 300 | – | – | 300 | – | 100 | Non-toxic | – | – | – | – | 300 | inactive | – | – | – | –
4 | CCOC(=O)C1C(c2ccccc2Cl)NC(c2ccccc2Cl)C(C(=O)OCC)S1(=O)=O (stereo not drawn) | 300 | – | – | 300 | – | 100 | Non-toxic | Non-toxic | – | – | – | – | inactive | – | – | – | –
5 | CCOC(=O)C1C(c2ccc3c(c2)OCO3)NC(c2ccc3c(c2)OCO3)C(C(=O)OCC)S1(=O)=O (stereo not drawn) | 100 | 248 | 220 | 300 | 1.1 | 30 | Non-toxic | Non-toxic | 9 | 27.4 | 300 | – | – | – | – | – | –
6 | CCOC(=O)C1C(c2cc3ccccc3nc2Cl)NC(c2cc3ccccc3nc2Cl)C(C(=O)OCC)S1(=O)=O (stereo not drawn) | 100 | 128 | 62.7 | 300 | 2 | 30 | Non-toxic | Non-toxic | 10.3 | 12.4 | 300 | – | – | – | – | – | –
7 | CCOC(=O)C1C(c2cccnc2)NC(c2cccnc2)C(C(=O)OCC)S1(=O)=O (stereo not drawn) | 300 | – | – | – | – | 300 | Non-toxic | – | – | – | – | 300 | inactive | inactive | – | – | –
8 | CCOC(=O)C1C(c2ccsc2)NC(c2ccsc2)C(C(=O)OCC)S1(=O)=O (stereo not drawn) | 300 | – | – | 300 | – | 100 | Non-toxic | – | – | – | – | 300 | inactive | – | – | – | –
9 | CCOC(=O)C1C(c2ccc[nH]2)NC(c2ccc[nH]2)C(C(=O)OCC)S1(=O)=O (stereo not drawn) | 300 | – | – | 300 | – | 100 | – | Non-toxic | – | – | – | – | inactive | – | 300 | – | –
10 | CCCC(CCC)C(=O)O [VALPROIC ACID] | – | – | 149 | – | – | – | – | – | – | – | – | – | – | – | – | – | –
11 | NC(=O)N1c2ccccc2C=Cc2ccccc21 [CARBAMAZEPINE] | – | – | > 100 | – | – | – | – | – | – | 11.4 | – | – | – | – | – | – | –
12 | CCOC(=O)C1C(c2ccccn2)NC(c2ccccn2)C(C(=O)OCC)S1(=O)=O (stereo not drawn) | 300 | – | – | – | – | 300 | Non-toxic | – | – | – | – | 300 | inactive | inactive | – | – | –
13 | CCOC(=O)C1C(c2ccc(OC)c(OC)c2)NC(c2ccc(OC)c(OC)c2)C(C(=O)OCC)S1(=O)=O (stereo not drawn) | 300 | – | – | 300 | – | 100 | Non-toxic | – | – | – | – | 300 | inactive | – | – | – | –
14 | CCOC(=O)C1C(c2ccco2)NC(c2ccco2)C(C(=O)OCC)S1(=O)=O (stereo not drawn) | 300 | – | – | – | – | 300 | Non-toxic | – | – | – | – | 300 | inactive | inactive | – | – | –
15 | O=C1NC(=O)C(c2ccccc2)(c2ccccc2)N1 [PHENYTOIN] | 30 | – | > 300 | 100 | – | 30 | – | – | – | 9.8 | – | 100 | inactive | inactive | 100 | – | –
16 | CCOC(=O)C1C(c2cccs2)NC(c2cccs2)C(C(=O)OCC)S1(=O)=O (stereo not drawn) | 300 | – | – | 300 | – | 100 | Non-toxic | – | – | – | – | 300 | inactive | – | – | – | –
17 | CCOC(=O)C1C(c2cc3ccccc3[nH]2)NC(c2cc3ccccc3[nH]2)C(C(=O)OCC)S1(=O)=O (stereo not drawn) | 100 | 119 | 56.8 | 300 | 2.1 | 30 | Non-toxic | Non-toxic | 9 | 13.2 | 300 | – | – | – | – | – | –
18 | CCOC(=O)C1C(c2ccc(Cl)cc2)NC(c2ccc(Cl)cc2)C(C(=O)OCC)S1(=O)=O (stereo not drawn) | 30 | 289 | 50.5 | 100 | 5.7 | 30 | Non-toxic | Non-toxic | 28.3 | 10.2 | 300 | – | – | – | – | – | –
19 | CCOC(=O)C1C(c2cccc(Cl)c2)NC(c2cccc(Cl)c2)C(C(=O)OCC)S1(=O)=O (stereo not drawn) | 300 | – | – | 300 | – | 100 | – | Non-toxic | – | – | – | – | inactive | – | 300 | – | –
20 | CCC1(c2ccccc2)C(=O)NC(=O)NC1=O [PHENOBARBITAL] | – | 68.2 | 13.2 | – | – | – | – | – | – | 20.6 | – | – | – | – | – | – | –
21 | CCC1(C)CC(=O)NC1=O (stereo not drawn) [ETHOSUXIMIDE] | – | – | – | 100 | – | – | Non-toxic | Non-toxic | – | – | 300 | – | – | – | – | inactive | inactive
22 | CCOC(=O)C1C(c2ccccc2)NC(c2ccccc2)C(C(=O)OCC)S1(=O)=O (stereo not drawn) | 100 | 131 | 58.6 | 300 | 2.2 | 30 | Non-toxic | Non-toxic | 8.8 | 14.8 | 300 | – | – | – | – | – | –
